Active and inactive are the calls of the source.
Assays:
[1] = biological target: Mitogen-activated protein kinase 8 (Homo sapiens, UniProt P45983)
[2] = biological target: Tyrosine-protein kinase Fer (Homo sapiens, UniProt P16591)
[3] = biological target: BMP-2-inducible protein kinase (Homo sapiens, UniProt Q9NSY1)
Adenosine kinase = Adenosine kinase (Homo sapiens, UniProt P55263)
[4] = biological target: Tyrosine-protein kinase Fyn (Homo sapiens, UniProt P06241)
[5] = biological target: Serine/threonine-protein kinase MRCK gamma (Homo sapiens, UniProt Q6DT37)
[6] = biological target: T1, Adenine phosphoribosyltransferase (Homo sapiens, UniProt P07741)
T1 sequence (P07741 whole entry): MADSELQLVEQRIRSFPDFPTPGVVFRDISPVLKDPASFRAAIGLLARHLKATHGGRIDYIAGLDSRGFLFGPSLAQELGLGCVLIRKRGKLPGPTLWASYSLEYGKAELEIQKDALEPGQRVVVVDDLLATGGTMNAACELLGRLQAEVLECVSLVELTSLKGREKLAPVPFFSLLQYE

[7] = biological target: Inosine-5'-monophosphate dehydrogenase 2 (Homo sapiens, UniProt P12268)
ADP/ATP translocase 3 = biological target: T2, ADP/ATP translocase 3 (Homo sapiens, UniProt P12236)
T2 sequence (P12236 whole entry): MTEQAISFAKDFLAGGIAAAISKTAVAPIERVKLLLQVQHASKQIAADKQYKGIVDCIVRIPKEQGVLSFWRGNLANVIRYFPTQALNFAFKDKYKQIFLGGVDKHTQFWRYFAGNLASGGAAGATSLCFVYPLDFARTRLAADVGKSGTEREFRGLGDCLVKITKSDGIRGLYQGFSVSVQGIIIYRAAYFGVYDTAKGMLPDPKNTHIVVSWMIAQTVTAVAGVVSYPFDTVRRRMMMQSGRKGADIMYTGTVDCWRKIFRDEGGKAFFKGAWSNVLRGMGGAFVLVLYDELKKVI

[8] = biological target: Serine/threonine-protein kinase SIK3 (Homo sapiens, UniProt Q9Y2K2)
[9] = biological target: T3, Electron transfer flavoprotein subunit beta (Homo sapiens, UniProt P38117)
T3 sequence (P38117 whole entry): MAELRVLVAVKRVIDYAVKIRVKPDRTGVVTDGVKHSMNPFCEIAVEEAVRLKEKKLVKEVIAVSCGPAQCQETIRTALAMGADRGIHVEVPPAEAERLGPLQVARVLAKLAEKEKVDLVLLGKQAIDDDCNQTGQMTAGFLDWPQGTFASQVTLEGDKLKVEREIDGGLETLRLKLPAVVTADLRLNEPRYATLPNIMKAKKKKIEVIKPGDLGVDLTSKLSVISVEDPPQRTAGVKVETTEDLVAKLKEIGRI

[10] = biological target: Mitogen-activated protein kinase 11 (Homo sapiens, UniProt Q15759)
LIM domain kinase 1 = LIM domain kinase 1 (Homo sapiens, UniProt P53667)
[11] = biological target: Ribosomal protein S6 kinase alpha-1 (Homo sapiens, UniProt Q15418)
[12] = biological target: T4, NUAK family SNF1-like kinase 2 (Homo sapiens, UniProt Q9H093)
T4 sequence (Q9H093 whole entry): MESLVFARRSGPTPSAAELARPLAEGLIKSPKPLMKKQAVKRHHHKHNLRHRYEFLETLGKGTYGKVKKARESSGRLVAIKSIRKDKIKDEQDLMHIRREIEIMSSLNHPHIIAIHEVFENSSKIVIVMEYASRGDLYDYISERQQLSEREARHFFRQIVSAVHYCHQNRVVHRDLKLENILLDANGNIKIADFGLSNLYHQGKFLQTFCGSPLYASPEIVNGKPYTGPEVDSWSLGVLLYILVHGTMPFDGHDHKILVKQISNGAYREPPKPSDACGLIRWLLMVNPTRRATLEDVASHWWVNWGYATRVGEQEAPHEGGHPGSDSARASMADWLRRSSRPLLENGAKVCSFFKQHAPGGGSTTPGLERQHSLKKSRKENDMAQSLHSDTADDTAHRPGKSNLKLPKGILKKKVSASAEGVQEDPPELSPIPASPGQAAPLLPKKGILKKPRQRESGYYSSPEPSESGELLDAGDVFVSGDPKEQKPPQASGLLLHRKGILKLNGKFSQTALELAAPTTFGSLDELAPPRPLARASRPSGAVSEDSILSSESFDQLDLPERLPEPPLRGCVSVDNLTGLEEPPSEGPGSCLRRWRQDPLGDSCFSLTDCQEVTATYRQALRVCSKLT

[13] = biological target: T5, Mitogen-activated protein kinase kinase kinase kinase 3 (Homo sapiens, UniProt Q8IVH8)
T5 sequence (Q8IVH8 whole entry): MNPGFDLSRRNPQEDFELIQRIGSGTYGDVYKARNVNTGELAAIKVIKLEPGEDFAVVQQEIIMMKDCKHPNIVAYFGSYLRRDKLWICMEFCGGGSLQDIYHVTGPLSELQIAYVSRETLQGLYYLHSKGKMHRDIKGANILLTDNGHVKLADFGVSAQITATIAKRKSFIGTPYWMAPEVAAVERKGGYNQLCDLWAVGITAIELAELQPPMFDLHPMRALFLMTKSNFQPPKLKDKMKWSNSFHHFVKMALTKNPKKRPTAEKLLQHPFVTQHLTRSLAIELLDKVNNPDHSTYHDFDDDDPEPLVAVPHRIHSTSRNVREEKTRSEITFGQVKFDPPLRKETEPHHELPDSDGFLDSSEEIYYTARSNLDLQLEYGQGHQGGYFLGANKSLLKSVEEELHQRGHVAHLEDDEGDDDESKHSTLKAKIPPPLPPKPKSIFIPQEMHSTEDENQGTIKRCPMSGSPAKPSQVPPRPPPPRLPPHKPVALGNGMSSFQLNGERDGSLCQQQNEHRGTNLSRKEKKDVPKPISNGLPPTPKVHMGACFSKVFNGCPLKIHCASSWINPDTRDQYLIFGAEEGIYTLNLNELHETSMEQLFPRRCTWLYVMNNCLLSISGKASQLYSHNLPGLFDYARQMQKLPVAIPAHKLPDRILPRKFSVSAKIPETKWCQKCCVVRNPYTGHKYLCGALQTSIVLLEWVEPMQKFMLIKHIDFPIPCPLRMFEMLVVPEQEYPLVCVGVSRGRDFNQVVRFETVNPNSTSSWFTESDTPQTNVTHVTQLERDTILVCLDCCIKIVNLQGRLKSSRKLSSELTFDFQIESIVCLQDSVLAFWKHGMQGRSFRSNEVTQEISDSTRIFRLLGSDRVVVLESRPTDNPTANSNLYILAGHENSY
Note: in the data inactive means no Kd found up to 30 µM.

Tyrosine-protein kinase Fer, sequence (P16591 whole entry): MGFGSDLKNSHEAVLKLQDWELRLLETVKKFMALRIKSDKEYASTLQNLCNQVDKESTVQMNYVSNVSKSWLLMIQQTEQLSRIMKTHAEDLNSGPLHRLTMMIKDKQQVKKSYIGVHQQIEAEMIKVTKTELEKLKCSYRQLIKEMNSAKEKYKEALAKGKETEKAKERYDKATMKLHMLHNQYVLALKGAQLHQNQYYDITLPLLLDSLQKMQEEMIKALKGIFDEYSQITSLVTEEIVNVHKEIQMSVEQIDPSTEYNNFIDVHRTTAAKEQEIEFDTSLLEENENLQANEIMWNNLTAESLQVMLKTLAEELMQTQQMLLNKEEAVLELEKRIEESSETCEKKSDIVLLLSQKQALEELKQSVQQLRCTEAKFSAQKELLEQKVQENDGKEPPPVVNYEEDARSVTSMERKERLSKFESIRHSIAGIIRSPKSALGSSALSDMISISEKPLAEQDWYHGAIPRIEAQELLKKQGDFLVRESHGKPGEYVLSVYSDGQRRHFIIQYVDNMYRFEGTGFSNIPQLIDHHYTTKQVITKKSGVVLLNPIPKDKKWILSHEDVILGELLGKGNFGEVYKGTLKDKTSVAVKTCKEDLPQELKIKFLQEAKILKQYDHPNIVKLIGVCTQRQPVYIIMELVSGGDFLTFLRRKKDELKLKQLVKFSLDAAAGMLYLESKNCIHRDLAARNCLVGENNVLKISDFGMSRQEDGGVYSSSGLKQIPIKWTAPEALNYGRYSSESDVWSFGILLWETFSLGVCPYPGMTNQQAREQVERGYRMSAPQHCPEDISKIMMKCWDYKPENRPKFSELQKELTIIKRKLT
BMP-2-inducible protein kinase, sequence (Q9NSY1 whole entry): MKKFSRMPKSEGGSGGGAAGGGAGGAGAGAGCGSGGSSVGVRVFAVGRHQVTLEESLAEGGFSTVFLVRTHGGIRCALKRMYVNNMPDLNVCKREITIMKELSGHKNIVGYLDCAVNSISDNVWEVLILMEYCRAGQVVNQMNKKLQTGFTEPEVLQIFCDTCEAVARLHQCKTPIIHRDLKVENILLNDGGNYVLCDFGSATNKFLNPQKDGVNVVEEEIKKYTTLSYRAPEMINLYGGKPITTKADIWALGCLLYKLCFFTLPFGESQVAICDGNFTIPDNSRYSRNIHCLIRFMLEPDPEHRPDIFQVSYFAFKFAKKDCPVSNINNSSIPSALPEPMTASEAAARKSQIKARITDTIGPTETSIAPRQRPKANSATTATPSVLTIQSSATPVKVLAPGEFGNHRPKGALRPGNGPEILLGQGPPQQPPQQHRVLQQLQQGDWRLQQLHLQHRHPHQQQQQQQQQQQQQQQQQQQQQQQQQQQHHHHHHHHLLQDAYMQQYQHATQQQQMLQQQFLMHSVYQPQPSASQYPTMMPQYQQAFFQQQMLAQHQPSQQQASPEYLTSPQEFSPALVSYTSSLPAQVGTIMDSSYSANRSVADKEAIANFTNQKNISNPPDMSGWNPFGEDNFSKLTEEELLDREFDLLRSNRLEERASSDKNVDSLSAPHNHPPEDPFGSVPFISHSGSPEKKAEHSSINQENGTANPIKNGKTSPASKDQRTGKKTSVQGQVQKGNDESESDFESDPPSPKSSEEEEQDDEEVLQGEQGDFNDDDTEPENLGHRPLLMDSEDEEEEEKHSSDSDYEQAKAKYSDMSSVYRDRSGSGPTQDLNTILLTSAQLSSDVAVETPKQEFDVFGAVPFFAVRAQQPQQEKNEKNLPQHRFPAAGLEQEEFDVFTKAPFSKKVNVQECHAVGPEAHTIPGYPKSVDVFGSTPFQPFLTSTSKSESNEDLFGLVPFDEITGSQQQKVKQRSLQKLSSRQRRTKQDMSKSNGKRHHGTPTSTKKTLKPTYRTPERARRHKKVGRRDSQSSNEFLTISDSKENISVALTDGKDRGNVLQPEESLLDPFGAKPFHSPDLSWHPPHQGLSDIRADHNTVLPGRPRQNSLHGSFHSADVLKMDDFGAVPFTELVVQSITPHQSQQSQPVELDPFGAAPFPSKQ
Adenosine kinase, sequence (P55263 whole entry): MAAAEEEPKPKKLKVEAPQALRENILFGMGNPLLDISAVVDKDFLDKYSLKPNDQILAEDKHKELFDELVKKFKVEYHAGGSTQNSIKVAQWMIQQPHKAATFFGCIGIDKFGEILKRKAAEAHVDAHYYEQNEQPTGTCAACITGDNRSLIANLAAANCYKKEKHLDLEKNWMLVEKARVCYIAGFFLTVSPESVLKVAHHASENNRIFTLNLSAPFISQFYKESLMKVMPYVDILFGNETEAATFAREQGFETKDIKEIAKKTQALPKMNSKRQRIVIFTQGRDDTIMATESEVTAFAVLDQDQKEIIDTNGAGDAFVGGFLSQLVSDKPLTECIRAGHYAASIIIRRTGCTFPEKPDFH
Ribosomal protein S6 kinase alpha-1, sequence (Q15418 whole entry): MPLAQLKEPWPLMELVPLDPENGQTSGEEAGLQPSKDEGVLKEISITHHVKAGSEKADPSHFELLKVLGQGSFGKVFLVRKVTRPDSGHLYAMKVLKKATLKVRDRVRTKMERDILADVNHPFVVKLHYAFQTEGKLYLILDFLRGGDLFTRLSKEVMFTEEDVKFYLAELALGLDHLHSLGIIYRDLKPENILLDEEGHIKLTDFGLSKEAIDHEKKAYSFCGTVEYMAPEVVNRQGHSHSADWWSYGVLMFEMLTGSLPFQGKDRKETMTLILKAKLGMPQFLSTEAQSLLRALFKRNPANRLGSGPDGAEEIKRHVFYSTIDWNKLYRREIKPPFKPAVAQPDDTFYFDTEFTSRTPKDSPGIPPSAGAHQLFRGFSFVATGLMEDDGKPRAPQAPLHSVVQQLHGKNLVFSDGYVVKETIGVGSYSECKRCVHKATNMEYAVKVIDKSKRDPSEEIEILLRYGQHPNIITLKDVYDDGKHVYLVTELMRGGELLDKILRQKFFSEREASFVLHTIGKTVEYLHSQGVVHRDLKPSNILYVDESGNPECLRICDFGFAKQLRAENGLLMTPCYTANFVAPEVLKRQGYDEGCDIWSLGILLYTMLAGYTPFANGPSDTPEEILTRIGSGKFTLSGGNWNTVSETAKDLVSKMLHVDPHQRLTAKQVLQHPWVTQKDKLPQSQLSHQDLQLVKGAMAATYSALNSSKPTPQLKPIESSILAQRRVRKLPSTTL
Serine/threonine-protein kinase SIK3, sequence (Q9Y2K2 whole entry): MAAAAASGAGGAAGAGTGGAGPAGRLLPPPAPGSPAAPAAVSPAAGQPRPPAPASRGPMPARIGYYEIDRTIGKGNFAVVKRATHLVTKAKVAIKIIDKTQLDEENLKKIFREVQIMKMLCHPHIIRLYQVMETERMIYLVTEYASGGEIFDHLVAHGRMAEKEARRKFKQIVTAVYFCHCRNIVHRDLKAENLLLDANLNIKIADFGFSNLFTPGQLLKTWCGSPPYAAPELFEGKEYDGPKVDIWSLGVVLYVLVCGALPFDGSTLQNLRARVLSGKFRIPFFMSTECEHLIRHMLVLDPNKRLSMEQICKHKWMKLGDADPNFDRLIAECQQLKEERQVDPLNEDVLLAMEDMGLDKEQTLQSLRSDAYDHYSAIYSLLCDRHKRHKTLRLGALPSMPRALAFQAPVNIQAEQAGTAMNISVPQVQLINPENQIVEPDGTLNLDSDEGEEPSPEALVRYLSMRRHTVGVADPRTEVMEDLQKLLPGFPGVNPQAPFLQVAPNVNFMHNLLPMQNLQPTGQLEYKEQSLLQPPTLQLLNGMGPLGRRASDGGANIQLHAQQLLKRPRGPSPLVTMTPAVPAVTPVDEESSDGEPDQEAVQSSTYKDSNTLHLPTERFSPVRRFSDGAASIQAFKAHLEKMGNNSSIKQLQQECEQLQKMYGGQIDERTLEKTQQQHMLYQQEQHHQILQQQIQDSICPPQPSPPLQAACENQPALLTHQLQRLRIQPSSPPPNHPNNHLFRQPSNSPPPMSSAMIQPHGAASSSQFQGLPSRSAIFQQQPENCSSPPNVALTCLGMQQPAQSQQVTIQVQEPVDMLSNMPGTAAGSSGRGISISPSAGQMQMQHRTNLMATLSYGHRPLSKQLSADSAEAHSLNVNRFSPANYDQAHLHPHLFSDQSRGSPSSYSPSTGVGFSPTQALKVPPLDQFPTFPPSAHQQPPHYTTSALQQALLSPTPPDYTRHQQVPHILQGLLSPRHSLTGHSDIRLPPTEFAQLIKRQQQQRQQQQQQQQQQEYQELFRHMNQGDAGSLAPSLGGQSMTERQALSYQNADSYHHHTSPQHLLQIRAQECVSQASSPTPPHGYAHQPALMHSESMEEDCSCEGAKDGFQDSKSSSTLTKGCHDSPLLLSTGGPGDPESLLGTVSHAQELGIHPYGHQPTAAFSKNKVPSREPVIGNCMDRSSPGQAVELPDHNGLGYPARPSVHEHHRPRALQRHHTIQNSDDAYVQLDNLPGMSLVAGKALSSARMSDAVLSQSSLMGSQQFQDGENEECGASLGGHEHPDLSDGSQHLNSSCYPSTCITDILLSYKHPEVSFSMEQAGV
Mitogen-activated protein kinase 11, sequence (Q15759 whole entry, the tested form may be a part): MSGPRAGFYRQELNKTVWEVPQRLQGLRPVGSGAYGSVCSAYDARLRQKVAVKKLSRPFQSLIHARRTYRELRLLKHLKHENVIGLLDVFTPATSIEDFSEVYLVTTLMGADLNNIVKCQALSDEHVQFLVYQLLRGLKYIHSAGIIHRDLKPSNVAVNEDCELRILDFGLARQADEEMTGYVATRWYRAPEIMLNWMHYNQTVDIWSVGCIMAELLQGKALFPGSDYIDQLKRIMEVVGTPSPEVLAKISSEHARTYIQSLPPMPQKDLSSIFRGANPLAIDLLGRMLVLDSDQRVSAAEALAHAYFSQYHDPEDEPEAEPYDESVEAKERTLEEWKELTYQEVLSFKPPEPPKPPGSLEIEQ

Kd [1]	Kd [2]	Kd [3]	Kd (Adenosine kinase)	Kd [4]	Kd [5]	Kd [6]	Kd [7]	Kd (ADP/ATP translocase 3)	Kd [8]	Kd [9]	Kd [10]	Kd (LIM domain kinase 1)	Kd [11]	Kd [12]	Kd [13]	SMILES
> 30 µM (inactive)	> 30 µM (inactive)	> 30 µM (inactive)	> 30 µM (inactive)	> 30 µM (inactive)	> 30 µM (inactive)	> 30 µM (inactive)	> 30 µM (inactive)	> 30 µM (inactive)	> 30 µM (inactive)	> 30 µM (inactive)	> 30 µM (inactive)	> 30 µM (inactive)	> 30 µM (inactive)	> 30 µM (inactive)	> 30 µM (inactive)	CNC(=O)c1cccc(-c2ccc3c(N4CCOC[C@@H]4C)nc(N4CCOC[C@@H]4C)nc3n2)c1 [VISTUSERTIB]
> 30 µM (inactive)	> 30 µM (inactive)	> 30 µM (inactive)	> 30 µM (inactive)	> 30 µM (inactive)	> 30 µM (inactive)	> 30 µM (inactive)	> 30 µM (inactive)	> 30 µM (inactive)	> 30 µM (inactive)	> 30 µM (inactive)	> 30 µM (inactive)	> 30 µM (inactive)	> 30 µM (inactive)	> 30 µM (inactive)	> 30 µM (inactive)	COc1cc2ncnc3c2cc1OCCCCCN(C)Cc1ccc(Br)cc1N3 [JNJ-26483327]
> 30 µM (inactive)	> 30 µM (inactive)	> 30 µM (inactive)	> 30 µM (inactive)	> 30 µM (inactive)	> 30 µM (inactive)	> 30 µM (inactive)	> 30 µM (inactive)	> 30 µM (inactive)	> 30 µM (inactive)	> 30 µM (inactive)	> 30 µM (inactive)	> 30 µM (inactive)	5.92 µM (active)	> 30 µM (inactive)	> 30 µM (inactive)	O=C(O)c1ccc2c(c1)nc(Nc1cccc(Cl)c1)c1ccncc12 [SILMITASERTIB]
> 30 µM (inactive)	> 30 µM (inactive)	> 30 µM (inactive)	> 30 µM (inactive)	> 30 µM (inactive)	> 30 µM (inactive)	> 30 µM (inactive)	> 30 µM (inactive)	> 30 µM (inactive)	> 30 µM (inactive)	> 30 µM (inactive)	> 30 µM (inactive)	> 30 µM (inactive)	> 30 µM (inactive)	> 30 µM (inactive)	> 30 µM (inactive)	C#Cc1cccc(Nc2ncnc3cc4c(cc23)OCCOCCOCCO4)c1 [ICOTINIB]

Second part, the compound before the results:

SMILES	Kd [1]	Kd [2]	Kd [3]	Kd (Adenosine kinase)	Kd [4]	Kd [5]	Kd [6]	Kd [7]	Kd (ADP/ATP translocase 3)	Kd [8]	Kd [9]	Kd [10]	Kd (LIM domain kinase 1)	Kd [11]	Kd [12]	Kd [13]
S=C(NCc1ccc2c(c1)OCO2)N1CCN(c2ncnc3c2oc2ccccc23)CC1 [AMUVATINIB]	> 30 µM (inactive)	> 30 µM (inactive)	> 30 µM (inactive)	> 30 µM (inactive)	> 30 µM (inactive)	> 30 µM (inactive)	> 30 µM (inactive)	> 30 µM (inactive)	> 30 µM (inactive)	> 30 µM (inactive)	> 30 µM (inactive)	> 30 µM (inactive)	> 30 µM (inactive)	> 30 µM (inactive)	> 30 µM (inactive)	> 30 µM (inactive)
COc1ccc(-c2ccc3ncc4c(c3c2)n(-c2ccc(N3CCNCC3)c(C(F)(F)F)c2)c(=O)n4C)cn1 [BGT-226 FREE BASE]	> 30 µM (inactive)	> 30 µM (inactive)	> 30 µM (inactive)	> 30 µM (inactive)	> 30 µM (inactive)	> 30 µM (inactive)	> 30 µM (inactive)	> 30 µM (inactive)	> 30 µM (inactive)	> 30 µM (inactive)	> 30 µM (inactive)	> 30 µM (inactive)	> 30 µM (inactive)	> 30 µM (inactive)	> 30 µM (inactive)	> 30 µM (inactive)
C=CC(=O)Nc1cc(Nc2nccc(-c3cn(C)c4ccccc34)n2)c(OC)cc1N(C)CCN(C)C [OSIMERTINIB]	> 30 µM (inactive)	> 30 µM (inactive)	> 30 µM (inactive)	> 30 µM (inactive)	> 30 µM (inactive)	> 30 µM (inactive)	> 30 µM (inactive)	> 30 µM (inactive)	> 30 µM (inactive)	> 30 µM (inactive)	> 30 µM (inactive)	> 30 µM (inactive)	> 30 µM (inactive)	> 30 µM (inactive)	> 30 µM (inactive)	> 30 µM (inactive)

— ChEMBL document CHEMBL3991601, “The target landscape of clinical kinase drugs” (Science, 2017)
